A short description of series [1]: In vitro metabolism experiments (conjugation). Format: in vitro ADME. From the text: (§1) The compound is cleared by conjugation to produce the glucuronide and sulfate metabolites. The compound and its metabolites are rapidly taken up by the liver and excreted in the bile. Thus, following topical administration, any absorbed benzopyran is subject to high hepatic extraction, and thus low systemic exposure.

Another series is described as follows: In vivo clearance in dog. The conditions noted are these: low exposure to unchanged drug following oral or systemic administration.
Source text: as §1

The next series is described as follows: In vivo clearance in rat. The following applies: low exposure to unchanged drug following oral or systemic administration.
Source text: as §1

A further series deals with Female C3H/HeN mice. Briefly: Mouse hair growth model (topical administration). It is filed as in vivo. The conditions noted are these: for Day on which 50% incidence of hair growth occurred: topical. As for the experimental part:
The effect of the benzopyran compound (3S,4R)-3,4-dihydro-4-(2,3-dihydro-2-methyl-3-oxopyridazin-6-yl)oxy-3-hydroxy-6-(3-hydroxyphenyl)sulphonyl-2,2,3-trimethyl-2H-benzo[b]pyran (Compound 1) on hair growth was evaluated by topical administration of the compound to mice. Compound 1 may be made according to the methods described in U.S. Pat. Nos. 5,912,244 and 6,071,938.
Female C3H/HeN mice, 42-46 days old (Charles River Laboratories, Raleigh, N.C.) were used for the study. The hair follicles of mice at this age are in the second telogen phase, which usually lasts from 6 to 9 weeks, providing a wide enough window to test compounds for their ability to induce earlier onset of anagen. Only mice with pink skin, a visual indication of the telogen phase, were selected for inclusion in the study.
Test compounds, including Compound 1, the potassium channel opener minoxidil (marketed as Rogaine® containing 2% minoxidil), and cyclosporin A, were dissolved in a vehicle consisting of propylene glycol (30%) and ethanol (70%). A test compound dissolved in vehicle, or a vehicle control (30/70 propylene glycol/ethanol, unless otherwise specified) was applied topically to the clipped dorsal region of the mice in each test group (7-10 mice) in a volume of 20 μl/cm^2. Treatments were applied once or twice daily, 5 days/week.
The treatment area was observed and graded for signs of hair growth and local skin irritation. The hair growth response was quantified by recording, for each animal, the day on which signs of hair growth first appeared over the treated area. The first sign of anagen was the darkening of skin color as melanocytes in the follicles started to synthesize melanin in preparation for the production of pigmented hairs. The response time was measured as the number of days following initiation of treatment when hair growth was present in 50% of the mice in a given group.

Series [2] can be described thus: In vivo clearance in human. The following applies: low exposure to unchanged drug following oral or systemic administration.
Source text: as §1

Consider `Cn1nc(O[C@@H]2c3cc(S(=O)(=O)c4cccc(O)c4)ccc3OC(C)(C)[C@@]2(C)O)ccc1=O` [Compound 1, (3S,4R)-3,4-dihydro-4-(2,3-dihydro-2-methyl-3-oxopyridazin-6-yl)oxy-3-hydroxy-6-(3-hydroxyphenyl)sulphonyl-2,2,3-trimethyl-2H-benzo[b]pyran], for which, in series [1], the Rate of conjugation entry is reported as “high”. In addition, the Clearance entry (in “In vivo clearance in dog”; in the series “In vivo clearance in rat”; in series [2]) was “rapid clearance” throughout. In addition, the “Quality of hair growth over the treated area” value with Female C3H/HeN mice (all cases of hair growth stimulation) is “full and thick hair growth”. Further, the Hair growth stimulation entry in the series with Female C3H/HeN mice (applied topically at 0.3% or 1% once or twice daily for five days or up to 4 weeks) is recorded as “stimulated hair growth”. Besides, the “Efficacy relative to lower doses” value in the series with Female C3H/HeN mice (concentrations greater than 1%) is reported as “less efficacious than lower doses”. For the same compound, in the series on Female C3H/HeN mice (concentrations greater than 1%, vehicle propylene glycol/ethanol), the “Behaviour of drug on the skin” value is listed as “precipitation of drug on the skin”. In addition, in the series on Female C3H/HeN mice (concentrations lower than 0.3% (0.1% to 0.03%)), the Hair growth entry is given as “not observed”. In addition, in the series with Female C3H/HeN mice (mice treated for 2 weeks with 5%), the “Local irritation or other adverse effects” value is listed as “No local irritation or other adverse effects”. In addition, the “Day on which 50% incidence of hair growth occurred” value (from here on “Day on which 50% incidence”) in the series with Female C3H/HeN mice (dose 0.03%, 1 dose/day, duration 1 week, study 5 (vehicle >35)) was above 35 days; in the series with Female C3H/HeN mice (dose 0.03%, 1 dose/day, duration 1 week, study 6 (vehicle >35)), above 35 days; in the series on Female C3H/HeN mice (dose 0.03%, 1 dose/day, duration 1 week, study 7 (vehicle >35)), above 35 days; in the series on Female C3H/HeN mice (dose 0.03%, 1 dose/day, duration 1 week, study 9 (vehicle >35)), above 35 days; in the series on Female C3H/HeN mice (dose 0.1%, 1 dose/day, duration 1 week, study 5 (vehicle >35)), above 35 days; with Female C3H/HeN mice (dose 0.1%, 1 dose/day, duration 1 week, study 6 (vehicle >35)), above 35 days. Moreover, the “Day on which 50% incidence” value is 11 days in the series with Female C3H/HeN mice (dose 0.3%, 1 dose/day, duration 1 week, study 4 (vehicle 25)); above 35 days in the series with Female C3H/HeN mice (dose 0.3%, 1 dose/day, duration 1 week, study 5 (vehicle >35)); above 35 days in the series with Female C3H/HeN mice (dose 0.3%, 1 dose/day, duration 1 week, study 6 (vehicle >35)); 14 days with Female C3H/HeN mice (dose 0.3%, 1 dose/day, duration 1 week, study 7 (vehicle >35)); 16 days in the series with Female C3H/HeN mice (dose 0.3%, 1 dose/day, duration 1 week, study 9 (vehicle >35)); 21 days in the series on Female C3H/HeN mice (dose 0.3%, 1 dose/day, duration 1 week, study 10 (vehicle >35)). The “Day on which 50% incidence” value in the series on Female C3H/HeN mice (dose 0.3%, 1 dose/day, duration 1 week, study 11 (vehicle 56)) is 25 days; in the series with Female C3H/HeN mice (dose 0.3%, 1 dose/day, duration 1 week, study 12 (vehicle >35)) it was above 35 days; in the series with Female C3H/HeN mice (dose 0.3%, 1 dose/day, duration 1 week, study 13 (vehicle 56)), 28 days; in the series with Female C3H/HeN mice (dose 0.3%, 1 dose/day, duration 4 weeks, study 10 (vehicle >35)), 23 days; in the series on Female C3H/HeN mice (dose 0.3%, 1 dose/day, duration 4 weeks, study 12 (vehicle >35)) it was 16 days; in the series on Female C3H/HeN mice (dose 0.3%, 1 dose/day, duration 4 weeks, study 13 (vehicle 56)) it was 35 days. The “Day on which 50% incidence” value in the series with Female C3H/HeN mice (dose 1%, 1 dose/day, duration 1 week, study 3 (vehicle 21)) is 14 days; in the series with Female C3H/HeN mice (dose 1%, 1 dose/day, duration 1 week, study 4 (vehicle 25)), 11 days; in the series with Female C3H/HeN mice (dose 1%, 1 dose/day, duration 1 week, study 5 (vehicle >35)), above 35 days; in the series on Female C3H/HeN mice (dose 1%, 1 dose/day, duration 1 week, study 8 (vehicle >35)), 21 days; in the series on Female C3H/HeN mice (dose 1%, 1 dose/day, duration 1 week, study 9 (vehicle >35)), 28 days; in the series on Female C3H/HeN mice (dose 1%, 1 dose/day, duration 1 week, study 10 (vehicle >35)), above 35 days. The “Day on which 50% incidence” value in the series on Female C3H/HeN mice (dose 1%, 1 dose/day, duration 1 week, study 12 (vehicle >35)) is 16 days; in the series with Female C3H/HeN mice (dose 1%, 1 dose/day, duration 4 weeks, study 10 (vehicle >35)) it was above 35 days; in the series with Female C3H/HeN mice (dose 1%, 1 dose/day, duration 4 weeks, study 12 (vehicle >35)) it was 18 days; in the series with Female C3H/HeN mice (dose 1%, 2 doses/day, duration 2 weeks, study 1 (vehicle >35)), 25 days; with Female C3H/HeN mice (dose 1%, 2 doses/day, duration 2 weeks, study 2 (vehicle >35)) it was 28 days.

Consider `Nc1cc(N2CCCCC2)nc(N)[n+]1[O-]` [Minoxidil, minoxidil, reference compound], for which the “Day on which 50% incidence” value amounted to 53 days with Female C3H/HeN mice (dose 2.5%, 1 dose/day, duration 1 week, study 13 (vehicle 56)); 39 days in the series with Female C3H/HeN mice (dose 2.5%, 1 dose/day, duration 4 weeks, study 13 (vehicle 58)); 56 days in the series on Female C3H/HeN mice (dose 5%, 1 dose/day, duration 1 week, study 13 (vehicle 56)); 37 days with Female C3H/HeN mice (dose 5%, 1 dose/day, duration 4 weeks, study 13 (vehicle 58)).

For the origin of these results see patent US7306789B2, “Method of stimulating hair growth using benzopyrans” (Warner-Lambert Company, LLC, priority 2002, dated 2007).
